This assay deals with T1, human RXFP1 (Homo sapiens, UniProt Q9HBX9).
T1 construct: expressed in transfected cells
T1 sequence (Q9HBX9 1-757): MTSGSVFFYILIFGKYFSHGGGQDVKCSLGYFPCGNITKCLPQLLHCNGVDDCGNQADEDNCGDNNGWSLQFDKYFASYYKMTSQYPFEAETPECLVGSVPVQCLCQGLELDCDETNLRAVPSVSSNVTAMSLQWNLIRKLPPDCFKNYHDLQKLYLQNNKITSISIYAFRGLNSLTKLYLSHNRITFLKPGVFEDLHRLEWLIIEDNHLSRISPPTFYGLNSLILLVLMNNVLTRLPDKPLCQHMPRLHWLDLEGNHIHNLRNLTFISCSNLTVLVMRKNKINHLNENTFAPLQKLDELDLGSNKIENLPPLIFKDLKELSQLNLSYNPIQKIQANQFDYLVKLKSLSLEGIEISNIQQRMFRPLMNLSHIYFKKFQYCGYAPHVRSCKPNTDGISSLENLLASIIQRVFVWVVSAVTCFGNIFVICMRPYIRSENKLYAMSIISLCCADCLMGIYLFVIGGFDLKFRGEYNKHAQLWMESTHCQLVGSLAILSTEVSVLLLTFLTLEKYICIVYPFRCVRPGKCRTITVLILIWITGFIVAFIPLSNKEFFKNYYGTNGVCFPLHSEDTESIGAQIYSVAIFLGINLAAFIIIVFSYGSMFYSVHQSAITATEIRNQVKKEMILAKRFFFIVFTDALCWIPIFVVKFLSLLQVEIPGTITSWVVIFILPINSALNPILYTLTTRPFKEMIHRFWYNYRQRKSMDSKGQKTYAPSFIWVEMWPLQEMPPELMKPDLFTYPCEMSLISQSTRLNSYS
Description: hRXFP1 HEK293 cAMP assay (HTRF). In kind it is cell-based. The following applies: HEK293 cells stably expressing human RXFP1, 30 min at room temperature. An outline of the steps:
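hRXFP1-HEK293 stable line; HBSS + Ca/Mg, 20 mM HEPES, 0.05% BSA, 0.5 mM IBMX; cpd 0.010 nM–50 μM, 2% DMSO; 30 min RT; lysis, HTRF cAMP detection; 4-PL fit.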
(Cyclic AMP is a second messenger, typically raised through Gs and lowered through Gi signalling.)

Usually EC50 stands for the concentration at which the effect is half-maximal.

Regarding `COc1ccc(/C=C/C(=O)N2CCOCC2)cc1C(=O)N[C@H]1[C@@H](C(=O)Nc2ccc(F)c(C(F)(F)F)c2)[C@H]2CC[C@@H]1/C2=C\C1CC1` [Example 306, (1R,2S,3R,4R,7Z)-7-(cyclopropyl-methylidene)-N-[4-fluoro-3-(trifluoromethyl)phenyl]-3-{2-methoxy-5-[(1E)-3-(morpholin-4-yl)-3-oxoprop-1-en-1-yl]benzamido} bicyclo[2.2.1] heptane-2-carboxamide], the EC50 worked out at 5.26 nM. The compound `COc1ccc(CN2C(=O)CN(CCO)C2=O)cc1C(=O)N[C@H]1[C@@H](C(=O)Nc2ccc(F)c(C(F)(F)F)c2)[C@H]2CC[C@@H]1/C2=C\C1CC1` [Example 294, (1R,2S,3R,4R,7Z)-7-(cyclopropyl-methylidene)-N-[4-fluoro-3-(trifluoromethyl)phenyl]-3-(5-{[3-(2-hydroxyethyl)-2,5-dioxoimidazolidin-1-yl]methyl}-2-methoxybenzamido) bicyclo[2.2.1]heptane-2-carboxamide] returned an EC50 of 117 nM.

`COc1ccc(C#CCOC(=O)Nc2ccccc2)cc1C(=O)N[C@@H]1C2CCC(/C2=C/C(F)(F)F)[C@@H]1C(=O)Nc1ccc(F)c(C(F)(F)F)c1` (stereo partly drawn) [Example 69, 3-(3-{[(2R,3S,7Z)-3-{[4-fluoro-3-(trifluoromethyl)phe-nyl]carbamoyl}-7-(2,2,2-trifluoroethylidene)bi-cyclo[2.2.1]heptan-2-yl]carbamoyl}-4-methoxyphenyl)prop-2-yn-1-yl N-phenylcarbamate] had an EC50 of 95 nM. The compound `COc1ccc(C2CC2C(=O)N2CCC(O)CC2)cc1C(=O)N[C@H]1[C@@H](C(=O)Nc2ccc(F)c(C(F)(F)F)c2)[C@H]2CC[C@@H]1/C2=C\C1CC1` (single isomer, unassigned) [Example 321] showed an EC50 of 28.5 nM. In turn, “(1R,4R,7Z)-7- (cyclopentyl- methylidene)- N-[4-fluoro-3- (trifluoromethyl) phenyl]-3-[5-(3- hydroxy-3- methylbutyl)-2- methoxybenzamido] bicyclo[2.2.1] heptane-2- carboxamide [Example 268]” showed an EC50 of 29.6 nM.

For the compound `COc1ccc(C#C[C@@H](C)O)cc1C(=O)N[C@@H]1C2CCC(/C2=C/C(F)(F)F)[C@@H]1C(=O)Nc1ccc(F)c(C(F)(F)F)c1` (stereo partly drawn) [Example 72, (2S,3R,7Z)-N-[4-fluoro-3-(trifluoromethyl)phe-nyl]-3-{5-[(3R)-3-hydroxybut-1-yn-1-yl]-2-methoxybenzamido}-7-(2,2,2-trifluoroethylidene)bi-cyclo[2.2.1]heptane-2-carboxamide], the EC50 was determined as 134 nM.

Regarding `COc1ccc(COc2cccc(C(=O)O)c2)cc1C(=O)N[C@H]1[C@@H](C(=O)Nc2ccc(F)c(C(F)(F)F)c2)[C@H]2CC[C@@H]1/C2=C\C1CC1` [Example 12, 3-((3-(((1R,2R,3S,4R,Z)-7-(cyclopropylmethylene)-3-((4-fluoro-3-(trifluoromethyl)phenyl)carbamoyl)bicyclo[2.2.1]heptan-2-yl)carbamoyl)-4-methoxybenzyl)oxy)benzoic acid], the EC50 came out at 10 nM.

Compound `COc1ccc(CCC(C)(C)O)cc1C(=O)NC1C2CCC(/C2=C/CC2CCC2)[C@@H]1C(=O)Nc1ccc(F)c(C(F)(F)F)c1` (stereo partly drawn) [Example 174, (7Z)-7-(2-cyclobutylethylidene)-N-[4-fluoro-3-(trifluoromethyl)phe-nyl]-3-[5-(3-hydroxy-3-methylbutyl)-2-methoxybenzamido] bicyclo[2.2.1]heptane-2-carboxamide] returned an EC50 of 66 nM. In the case of `COc1c(F)cc(C(=O)NCC2(S(C)(=O)=O)CC2)cc1C(=O)N[C@H]1[C@@H](C(=O)Nc2ccc(F)c(C(F)(F)F)c2)[C@H]2CC[C@@H]1/C2=C\C1CC(F)(F)C1` [Example 374, N3-[(1R,2R,3S,4R,7Z)-7-[(3,3-difluorocyclobutyl)methylidene]-3-{[4-fluoro-3-(trifluoromethyl)phenyl]carbamoyl}bicyclo[2.2.1]heptan-2-yl]-5-fluoro-N1-[(1-methanesulfonyl-cyclopropyl)methyl]-4-methoxybenzene-1,3-dicarboxamide] it was 6.9 nM; in that of `CCOC(=O)C1CCCC(c2ccc(OC)c(C(=O)N[C@@H]3C4CCC(/C4=C/C(F)(F)F)[C@@H]3C(=O)Nc3ccc(F)c(C(F)(F)F)c3)c2)C1` (stereo partly drawn) [Example 142], 167 nM. Next, `COc1ccc(N(Cc2ccccc2)Cc2ccccc2)cc1C(=O)N[C@H]1[C@@H](C(=O)Nc2ccc(F)c(C(F)(F)F)c2)[C@H]2CC[C@@H]1/C2=C\C1CC1` [Example 1, (1R,2S,3R,4R,Z)-7-(cyclopropylmethylene)-3-(5-(dibenzylamino)-2-methoxybenzamido)-N-(4-fluoro-3-(trifluoromethyl)phenyl) bicyclo[2.2.1]heptane-2-carboxamide]: 675 nM; `COc1ccc(CCCO)cc1C(=O)NC1C2CCC(/C2=C/C2CCCOC2)[C@@H]1C(=O)Nc1ccc(F)c(C(F)(F)F)c1` (single isomer, unassigned) [Example 171, (7Z)-N-[4-fluoro-3-(trifluoromethyl)phe-nyl]-3-[5-(3-hydroxypropyl)-2-methoxybenzamido]-7-[(oxan-3-yl)methylidene]bicy-clo[2.2.1]heptane-2-carboxamide]: 397 nM.

The compound `COC(=O)C1CC2(C1)CC(c1ccc(OC)c(C(=O)N[C@@H]3C4CCC(/C4=C/C(F)(F)F)[C@@H]3C(=O)Nc3ccc(F)c(C(F)(F)F)c3)c1)C2` (single isomer, unassigned) [Example 149] displayed an EC50 of 857 nM. In the case of `COc1ccc(/C(=C/CO)C(F)(F)F)cc1C(=O)N[C@H]1[C@@H](C(=O)Nc2ccc(F)c(C(F)(F)F)c2)[C@H]2CC[C@@H]1/C2=C\C1CC1` [Example 282, (1R,2S,3R,4R,Z)-7-(cyclopropylmethylene)-N-(4-fluoro-3-(trifluoromethyl)phenyl)-3-(2-methoxy-5-((Z)-1,1,1-trifluoro-4-hydroxybut-2-en-2-yl)benzamido) bicyclo[2.2.1]heptane-2-carboxamide] it was 281 nM; in that of `COc1ccc(COc2c(F)cccc2C(OC(=O)Nc2ccccc2)C(F)(F)F)cc1C(=O)N[C@H]1[C@@H](C(=O)Nc2ccc(F)c(C(F)(F)F)c2)[C@H]2CC[C@@H]1/C2=C\C1CC1` (stereo partly drawn) [Example 364, 1-(2-((3-(((1R,2R,3S,4R,Z)-7-(cyclopropyl-methylene)-3-((4-fluoro-3-(trifluoromethyl)phenyl)carbamoyl)bicyclo[2.2.1]heptan-2-yl)carbamoyl)-4-methoxybenzyl)oxy)-3-fluorophenyl)-2,2,2-trifluoroethyl phenylcarbamate], 1.1 nM; in that of `COc1ccc(COC2CCC(O)CC2)cc1C(=O)N[C@H]1[C@@H](C(=O)Nc2ccc(F)c(C(F)(F)F)c2)[C@H]2CC[C@@H]1/C2=C\C1CC1` (stereo partly drawn) [Example 289, (1R,2S,3R,4R,7Z)-7-(cyclopropyl-methylidene)-N-[4-fluoro-3-(trifluoromethyl)phenyl]-3-(5-{[(4-hydroxycyclohexyl)oxy]methyl}-2-methoxybenzamido) bicyclo[2.2.1]heptane-2-carboxamide], 14.5 nM. The compound `COc1ccc(C2CCCC(NC(=O)C3CCOCC3)C2)cc1C(=O)N[C@@H]1C2CCC(/C2=C/C(F)(F)F)[C@@H]1C(=O)Nc1ccc(F)c(C(F)(F)F)c1` (single isomer, unassigned) [Example 50] had an EC50 of 2350 nM. In the case of `COc1ccc(C(=O)N2CC(O)C2)cc1C(=O)N[C@H]1[C@@H](C(=O)Nc2ccc(F)c(C(F)(F)F)c2)[C@H]2CC[C@@H]1/C2=C\C1CC1` [Example 251, (1R,2S,3R,4R,7Z)-7-(cyclopropylmethyl-idene)-N-[4-fluoro-3-(trifluoromethyl)phenyl]-3-[5-(3-hydroxyazetidine-1-carbonyl)-2-methoxybenzamido] bicyclo[2.2.1]heptane-2-carboxamide] it was 44 nM. In the case of `COc1ccc(C2CCCC(OC(=O)Nc3ccccc3)C2)cc1C(=O)N[C@@H]1C2CCC(/C2=C/C(F)(F)F)[C@@H]1C(=O)Nc1ccc(F)c(C(F)(F)F)c1` (single isomer, unassigned) [Example 43] it was 157 nM; in that of `COc1ccc(CCCCCC#N)cc1C(=O)NC1C2CCC(/C2=C/C(F)(F)F)[C@@H]1C(=O)Nc1ccc(F)c(C(F)(F)F)c1` (stereo partly drawn) [Example 181, (7Z)-3-[5-(5-cyanopentyl)-2-methoxybenzamido]-N-[4-fluoro-3-(trifluoromethyl)phe-nyl]-7-(2,2,2-trifluoroethylidene)bi-cyclo[2.2.1]heptane-2-carboxamide], 103 nM; in that of `COc1ccc([C@H]2C[C@H](O)C2)cc1C(=O)N[C@H]1[C@@H](C(=O)Nc2ccc(F)c(C(F)(F)F)c2)[C@H]2CC[C@@H]1/C2=C\C1CC1` [Example 277, (1R,2S,3R,4R,7Z)-7-(cyclopropylmethyl-idene)-N-[4-fluoro-3-(trifluoromethyl)phenyl]-3-{2-methoxy-5-[(1r,3r)-3-hydroxycyclobutyl]benzamido} bicyclo [2.2.1]heptane-2-carboxamide], 7.25 nM.

The values above are taken from patent US20250268903A1, “RXFP1 AGONISTS” (BRISTOL-MYERS SQUIBB COMPANY, priority 2021, published 2025).
